Laboratory results taken from patent US7138361B2, “Herbicidal heterocycles” (E. I. du Pont de Nemours and Company, priority 2000, dated 2006).

Assays:
Type in all cases: in vivo
[1] = tested on: barnyardgrass (Echinochloa crus-galli); experiment: Test B preemergence
Procedure, shortened: (§1)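 Visual injury scores, 0 = no effect to 100 = complete control, assigned against controls after 13 to 15 days in the greenhouse. Compounds formulated in non-phytotoxic solvent plus surfactant and applied to soil after planting (pre) or onto foliage of 1- to 4-leaf plants (post).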

[2] = tested on: morning glory (Ipomoea hederacea); experiment: Test B preemergence
Procedure, shortened: as §1

[3] = tested on: rice (Oryza saliva); experiment: Test B preemergence
Procedure, shortened: as §1

[4] = tested on: giant foxtail (Setaria faberii); experiment: Test B preemergence
Procedure, shortened: as §1

[5] = tested on: pigweed (Amaranthus retroflexus); experiment: Test B preemergence
Procedure, shortened: as §1

[6] = tested on: lambsquarters (Chenopodium album); experiment: Test B preemergence
Procedure, shortened: as §1

[7] = tested on: crabgrass (Digitaria sanguinalis); experiment: Test B preemergence
Procedure, shortened: as §1

[8] = tested on: Surinam grass (Brachiaria decumbens); experiment: Test B preemergence
Procedure, shortened: as §1

[9] = tested on: velvetleaf (Abutilon theophrasti); experiment: Test B preemergence
Procedure, shortened: as §1

[10] = tested on: corn (Zea mays); experiment: Test B preemergence
Procedure, shortened: as §1

[11] = tested on: cocklebur (Xanthium strumarium); experiment: Test B preemergence
Procedure, shortened: as §1

[12] = tested on: Nightshade; experiment: Test C preemergence; details: Rate 500 g/ha, visual evaluation after 12 to 14 days
[13] = tested on: barnyardgrass (Echinochloa crus-galli); experiment: Test B postemergence; details: 13 to 15 days
Procedure, shortened: as §1

[14] = tested on: morning glory (Ipomoea hederacea); experiment: Test B postemergence; details: 13 to 15 days
Procedure, shortened: as §1

[15] = tested on: giant foxtail (Setaria faberii); experiment: Test B postemergence; details: 13 to 15 days
Procedure, shortened: as §1

[16] = tested on: pigweed (Amaranthus retroflexus); experiment: Test B postemergence; details: 13 to 15 days
Procedure, shortened: as §1

[17] = tested on: lambsquarters (Chenopodium album); experiment: Test B postemergence; details: 13 to 15 days
Procedure, shortened: as §1

[18] = tested on: crabgrass (Digitaria sanguinalis); experiment: Test B postemergence; details: 13 to 15 days
Procedure, shortened: as §1

[19] = tested on: Surinam grass (Brachiaria decumbens); experiment: Test B postemergence; details: 13 to 15 days
Procedure, shortened: as §1

[20] = tested on: wheat (Triticum aestivum); experiment: Test B postemergence; details: 13 to 15 days
Procedure, shortened: as §1

[21] = tested on: velvetleaf (Abutilon theophrasti); experiment: Test B postemergence; details: 13 to 15 days
Procedure, shortened: as §1

[22] = tested on: corn (Zea mays); experiment: Test B postemergence; details: 13 to 15 days
Procedure, shortened: as §1

[23] = tested on: blackgrass (Alopecurus myosuroides); experiment: Test B postemergence; details: 13 to 15 days
Procedure, shortened: as §1

[24] = tested on: cocklebur (Xanthium strumarium); experiment: Test B postemergence; details: 13 to 15 days
Procedure, shortened: as §1

[25] = tested on: wild oat (Avena fatua); experiment: Test B postemergence; details: 13 to 15 days
Procedure, shortened: as §1

[26] = tested on: Sunflower; experiment: Test C preemergence; details: scale 0 to 100, 0 no effect, 100 complete control
[27] = Preemergence, Rate 500 g/ha, scale 0 to 100, 0 no effect, 100 complete control
[28] = preemergence, Rate 125 g/ha, scale of 0 to 100 where 0 is no effect and 100 is complete control, 13 to 15 days
[29] = Rate 125 g/ha, scale 0 (no effect) to 100 (complete control)
[30] = Rate 500 g/ha, scale 0 to 100, 0 is no effect, 100 is complete control

COc1cc(OC)cc(N2CCC(n3ccc(C(C)(C)C)n3)C2=O)c1 (stereo not drawn) [Compound 71]
Plant response rating, Barnyardgrass [1, 27]: 90 | Plant response rating, Barnyardgrass [1, 28]: 10 | Plant response rating, Morningglory [2, 27]: 0 | Plant response rating, Morningglory [2, 28]: 0 | Plant response rating, Rice [3, 27]: 40 | Plant response rating, Rice [3, 28]: 20 | Plant response rating, Foxtail, Giant [4, 27]: 100 | Plant response rating, Foxtail, Giant [4, 28]: 90 | Plant response rating, Pigweed [5, 27]: 100 | Plant response rating, Pigweed [5, 28]: 100 | Plant response rating, Lambsquarters [6, 27]: 100 | Plant response rating, Lambsquarters [6, 28]: 100 | Plant response rating, Crabgrass [7, 27]: 100 | Plant response rating, Crabgrass [7, 28]: 50 | Plant response rating, Surinam grass [8, 27]: 40 | Plant response rating, Surinam grass [8, 28]: 40 | Plant response rating, Velvetleaf [9, 27]: 30 | Plant response rating, Velvetleaf [9, 28]: 0 | Plant response rating, Corn [10, 27]: 20 | Plant response rating, Corn [10, 28]: 0 | Plant response rating, Cocklebur [11, 27]: 0 | Plant response rating, Cocklebur [11, 28]: 0 | Plant response rating (0 to 100), Nightshade [12]: 30 | Plant response rating, Barnyardgrass [13, 29]: 0 | Plant response rating, Barnyardgrass [13, 30]: 0 | Plant response rating, Morningglory [14, 29]: 20 | Plant response rating, Morningglory [14, 30]: 20 | Plant response rating, Foxtail, Giant [15, 29]: 0 | Plant response rating, Foxtail, Giant [15, 30]: 20 | Plant response rating, Pigweed [16, 29]: 30 | Plant response rating, Pigweed [16, 30]: 60 | Plant response rating, Lambsquarters [17, 29]: 0 | Plant response rating, Lambsquarters [17, 30]: 50 | Plant response rating, Crabgrass [18, 29]: 0 | Plant response rating, Crabgrass [18, 30]: 30 | Plant response rating, Surinam grass [19, 29]: 0 | Plant response rating, Surinam grass [19, 30]: 30 | Plant response rating, Wheat [20, 29]: 0 | Plant response rating, Wheat [20, 30]: 0 | Plant response rating, Velvetleaf [21, 29]: 0 | Plant response rating, Velvetleaf [21, 30]: 20 | Plant response rating, Corn [22, 29]: 0 | Plant response rating, Corn [22, 30]: 0 | Plant response rating, Blackgrass [23, 29]: 0 | Plant response rating, Blackgrass [23, 30]: 0 | Plant response rating, Cocklebur [24, 29]: 0 | Plant response rating, Cocklebur [24, 30]: 20 | Plant response rating, Wild Oat [25, 29]: 0 | Plant response rating, Wild Oat [25, 30]: 0 | Plant response rating, Sunflower ([26]; Rate 125 g/ha): 0 | Plant response rating, Sunflower ([26]; Rate 250 g/ha): 0

CCOC(=O)c1cccc(N2CCC(n3ccc(C(C)(C)C)n3)C2=O)c1 (stereo not drawn) [Compound 72]
Plant response rating, Barnyardgrass [1, 27]: 100 | Plant response rating, Barnyardgrass [1, 28]: 100 | Plant response rating, Morningglory [2, 27]: 90 | Plant response rating, Morningglory [2, 28]: 0 | Plant response rating, Rice [3, 27]: 0 | Plant response rating, Rice [3, 28]: 0 | Plant response rating, Foxtail, Giant [4, 27]: 100 | Plant response rating, Foxtail, Giant [4, 28]: 100 | Plant response rating, Pigweed [5, 27]: 100 | Plant response rating, Pigweed [5, 28]: 100 | Plant response rating, Lambsquarters [6, 27]: 100 | Plant response rating, Lambsquarters [6, 28]: 100 | Plant response rating, Crabgrass [7, 27]: 100 | Plant response rating, Crabgrass [7, 28]: 100 | Plant response rating, Surinam grass [8, 27]: 70 | Plant response rating, Surinam grass [8, 28]: 0 | Plant response rating, Velvetleaf [9, 27]: 90 | Plant response rating, Velvetleaf [9, 28]: 0 | Plant response rating, Corn [10, 27]: 0 | Plant response rating, Corn [10, 28]: 0 | Plant response rating, Cocklebur [11, 27]: 60 | Plant response rating, Cocklebur [11, 28]: 0 | Plant response rating (0 to 100), Nightshade [12]: 60 | Plant response rating, Barnyardgrass [13, 29]: 30 | Plant response rating, Barnyardgrass [13, 30]: 70 | Plant response rating, Morningglory [14, 29]: 20 | Plant response rating, Morningglory [14, 30]: 50 | Plant response rating, Foxtail, Giant [15, 29]: 0 | Plant response rating, Foxtail, Giant [15, 30]: 50 | Plant response rating, Pigweed [16, 29]: 20 | Plant response rating, Pigweed [16, 30]: 60 | Plant response rating, Lambsquarters [17, 29]: 0 | Plant response rating, Lambsquarters [17, 30]: 0 | Plant response rating, Crabgrass [18, 29]: 0 | Plant response rating, Crabgrass [18, 30]: 30 | Plant response rating, Surinam grass [19, 29]: 0 | Plant response rating, Surinam grass [19, 30]: 0 | Plant response rating, Wheat [20, 29]: 0 | Plant response rating, Wheat [20, 30]: 0 | Plant response rating, Velvetleaf [21, 29]: 30 | Plant response rating, Velvetleaf [21, 30]: 60 | Plant response rating, Corn [22, 29]: 0 | Plant response rating, Corn [22, 30]: 0 | Plant response rating, Blackgrass [23, 29]: 0 | Plant response rating, Blackgrass [23, 30]: 0 | Plant response rating, Cocklebur [24, 29]: 80 | Plant response rating, Cocklebur [24, 30]: 90 | Plant response rating, Wild Oat [25, 29]: 0 | Plant response rating, Wild Oat [25, 30]: 0 | Plant response rating, Sunflower ([26]; Rate 125 g/ha): 20 | Plant response rating, Sunflower ([26]; Rate 250 g/ha): 20
